Series [1] in a line: Metabolism stability assay in liver microsomes. Particulars: liver microsomal metabolism in mice. The class given is in vitro ADME, mouse. Here is the method: Buffer A: 1 L solution of 100 mM potassium dihydrogen phosphate containing 1 mM EDTA (Sigma, V900157-100G) was prepared. Buffer B: 1 L solution of 100 mM dipotassium hydrogen phosphate containing 1 mM EDTA was prepared. Buffer C: 700 mL of buffer B was taken out and titrated with buffer A to pH 7.4.
2.1 10 μl of 10 mM compound to be tested and 10 μl of 10 mM ketanserin were taken out and 190 μl of pure acetonitrile was added to each of them to prepare 500 μM compound to be tested and ketanserin, respectively.
2.2 20 μl (20 mg/mL) of liver microsomes (XENOTECH, H0610) stock solution was added to 513.4 μl of buffer C on wet ice. 0.75 mg/mL liver microsomal solution was obtained.
2.3 1.5 μl of each of the above-mentioned compound to be tested and ketanserin solution was added to 498.5 μl of liver microsomal solution (0.7 5 mg/mL) respectively on wet ice. 1.5 μM mixed solution of compound to be tested and 1.5 μM mixed solution of ketanserin were obtained. […]
2.10 The sample was diluted with pure water in accordance with the ratio of 1:1 and detected by LC/MS. […]
Wherein, the K value and the proportional factor were calculated by those skilled in the art according to the methods described in the prior art and contained in the instructions of the liver microsome product.
(Liver microsomes are a subcellular fraction often used to study metabolism.)

The subject of series [2] is NIH-3T3 cells. Kind of series: Cytotoxicity in normal cell line NIH-3T3 (MTT assay). The class given is cell-based. As for the experimental part:
The MTT assay procedure and steps were carried out as well known to those skilled in the art, and all the reagents used in the methods were commercially available.
The cells in logarithmic growth phase were digested with 0.25% EDTA trypsin (Gibco, 25200-056) and resuspended in fresh medium. 90 μL of the cell suspension was inoculated into a 96-well cell culture plate (BD Faclon 353072) with a suitable cell density and cultured at 37° C. under 5% CO2. After the cells adhered, 10 μL of the test compound at different concentrations (0.0046-10 μM, 8 concentration points) was added and incubated for another 72 h. 10 μL of MTT (5 mg/mL PBS solution) (Sigma, M5655) was added to react for 4 h. The absorbance at 492 nm was measured by using Thermo Scientific Multiskan MK3 microplate reader and IC50 was calculated using XLFIT 5.0 software (UK IDBS).
(Formazan colour is commonly taken as a measure of viable cells.)

Series [3] has as its target T1, PI3K-α (p110α/p85α) (Homo sapiens, UniProt P42336).
T1 construct: purchased Invitrogen PV4788
Kind of series: Determination of PI3K kinase activity (ADP Transcreener fluorescence polarization), PI3K-α. Format: biochemical. Particulars: compared with BKM-120. As for the experimental part: The inhibition of PI3K kinase activity by the compound to be tested was determined by the following method. The working concentration of each component in the 25 μL enzyme reaction system was: p110α/p85α 3 ng (or p110β/p85α 60 ng, or p110δ/p85α 90 ng, or p110γ 100 ng), ATP 10 μM, PIP2: PS (Invitrogen PV5100) 30 μM and the DMSO concentration was 2% after addition of the compound to be tested.
The compound to be tested was gradiently diluted 3 times (0.00046-1 μM, 8 concentration points) with 10% DMSO. 5 μL of the compound to be tested was added to each well of a 96-well plate (Greiner 675076) in duplicate. […] 10 μL of ATP/PIP2: PS and 10 μL of the PI3K enzyme working solution were added to each well in a 96-well plate. The plate was shaken and mixed uniformly, and then incubated at 25° C. for 1 hour. […] After completion of the enzyme reaction, 25 μL of ADP assay solution (1% 100×ADP tracer, 0.79% ADP antibody and 10% 10× reaction stop solution) was added and incubated at 25° C. for 1 hour. Fluorescence polarization value [mP] of each well was measured with a Perkin Elmer Victor X5 Fluorescent Microplate. The ADP concentration [ADP] was calculated from the ADP/ATP standard curve and the IC50 values were calculated using the XLFit software.

A short description of series [4]: Solubility experiment in 0.1M HCl, buffers and water. Format: physicochemical. The conditions noted are these: ambient temperature; for solubility at 30 min: thermodynamic from solid. Here is the method: The solubilities of the following four kinds of salt and free base sample in 0.1M HCl, pH 4.5 buffer, pH 6.8 buffer, and water were tested at ambient temperature. In the test, the calibration curves of free base and four kinds of salt were plotted. 3 mg of solid samples of free base and four kinds of salt were weighed, respectively, and then 1 ml of the solvent was added, centrifuged after 30 min ultrasound. The supernatant was taken, and injected through the membrane, and the solubility was tested.

One molecule from patent US10544137B2, “PI3K inhibitor, and pharmaceutically acceptable salt, polycrystalline form, and application thereof” (SHANGHAI HAIYAN PHARMACEUTICAL TECHNOLOGY CO., LTD., priority 2016, dated 2020) can be followed below.

Molecules are shown by their SMILES. Like-named read-outs stand apart in the source and are kept apart here.

T1 sequence (P42336 whole entry): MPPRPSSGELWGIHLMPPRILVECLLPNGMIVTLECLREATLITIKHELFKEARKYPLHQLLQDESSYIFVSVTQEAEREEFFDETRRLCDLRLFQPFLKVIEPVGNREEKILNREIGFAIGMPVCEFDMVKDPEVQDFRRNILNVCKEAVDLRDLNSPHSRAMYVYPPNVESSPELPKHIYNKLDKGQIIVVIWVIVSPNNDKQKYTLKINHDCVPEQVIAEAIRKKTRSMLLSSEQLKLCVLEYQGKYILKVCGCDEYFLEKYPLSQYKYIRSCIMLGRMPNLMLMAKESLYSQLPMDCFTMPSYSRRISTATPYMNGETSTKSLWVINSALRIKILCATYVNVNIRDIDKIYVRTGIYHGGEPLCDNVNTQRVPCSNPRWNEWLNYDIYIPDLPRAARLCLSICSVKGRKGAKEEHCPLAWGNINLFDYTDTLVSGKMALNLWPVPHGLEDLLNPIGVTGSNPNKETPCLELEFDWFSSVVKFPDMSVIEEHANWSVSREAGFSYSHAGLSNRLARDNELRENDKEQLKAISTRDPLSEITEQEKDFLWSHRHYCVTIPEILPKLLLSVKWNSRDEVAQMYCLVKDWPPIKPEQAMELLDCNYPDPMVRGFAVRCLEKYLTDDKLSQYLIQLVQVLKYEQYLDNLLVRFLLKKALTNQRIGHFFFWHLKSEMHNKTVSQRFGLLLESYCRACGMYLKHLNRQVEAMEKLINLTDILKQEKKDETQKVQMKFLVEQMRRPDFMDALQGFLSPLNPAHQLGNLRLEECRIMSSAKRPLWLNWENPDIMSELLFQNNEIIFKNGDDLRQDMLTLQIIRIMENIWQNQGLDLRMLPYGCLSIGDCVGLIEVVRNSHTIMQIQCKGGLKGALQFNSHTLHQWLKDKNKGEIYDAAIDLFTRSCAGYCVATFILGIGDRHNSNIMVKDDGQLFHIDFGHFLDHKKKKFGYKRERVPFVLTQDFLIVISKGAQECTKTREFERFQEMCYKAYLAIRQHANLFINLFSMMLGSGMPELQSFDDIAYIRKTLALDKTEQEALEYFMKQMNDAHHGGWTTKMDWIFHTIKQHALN
T1 sequence (P27986 whole entry partner): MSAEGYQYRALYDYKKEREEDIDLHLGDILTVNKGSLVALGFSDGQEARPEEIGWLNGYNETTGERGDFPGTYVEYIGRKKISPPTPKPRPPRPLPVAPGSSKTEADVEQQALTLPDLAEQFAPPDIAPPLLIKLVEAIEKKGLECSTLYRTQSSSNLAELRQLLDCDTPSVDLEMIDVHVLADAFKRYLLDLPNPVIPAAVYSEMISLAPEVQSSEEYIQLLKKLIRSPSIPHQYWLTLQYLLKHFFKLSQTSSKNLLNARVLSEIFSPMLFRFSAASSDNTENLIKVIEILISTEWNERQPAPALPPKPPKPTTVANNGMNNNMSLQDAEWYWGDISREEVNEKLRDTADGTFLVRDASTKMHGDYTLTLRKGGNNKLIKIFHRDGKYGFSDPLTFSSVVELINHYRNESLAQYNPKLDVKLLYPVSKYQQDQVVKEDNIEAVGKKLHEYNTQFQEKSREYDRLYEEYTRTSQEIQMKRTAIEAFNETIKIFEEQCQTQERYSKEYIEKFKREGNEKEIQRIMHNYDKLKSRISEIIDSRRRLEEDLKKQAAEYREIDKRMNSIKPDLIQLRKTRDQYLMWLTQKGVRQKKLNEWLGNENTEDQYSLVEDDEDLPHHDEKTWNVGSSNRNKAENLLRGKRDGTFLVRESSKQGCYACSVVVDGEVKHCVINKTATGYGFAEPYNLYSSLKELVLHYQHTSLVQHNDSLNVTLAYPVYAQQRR

In the case of `CS(=O)(=O)C1(c2cc(-c3cnc(N)cc3Cl)nc(N3CCOCC3)n2)CC1` [Compound of formula X, 4-chloro-5-(6-(1-(methylsulfonyl)cyclopropyl)-2-morpholinopyrimidin-4-yl)pyridin-2-amine], the Clearance in series [1] is on record as 108.9 mL/min/kg. The “cytotoxicity in normal cell lines” value in series [2] was “relatively low cytotoxicity”. Also, in series [3], the “increase of inhibitory activity against PI3K-α kinase versus BKM-120” value is on record as “about 10 times”. In series [4] (0.1M HCl, listed as Free base), the “Solubility (mg/mL) 0.1M HCl” value is over 2.973 mg/mL. In addition, the solubility at 30 min was found to be 0.025 mg/mL in series [4] (pH 4.5 buffer, pH 4.5, aqueous buffer, pH 4.5 buffer, read-out: Solubility (mg/mL) pH 4.5) and 0.015 mg/mL in series [4] (pH 6.8 buffer, pH 6.8, aqueous buffer, pH 6.8 buffer, read-out: Solubility (mg/mL) pH 6.8). For the same molecule, the “Solubility (mg/mL) H2O” value in series [4] (water, listed as Free base) is given as 0.016 mg/mL.
